Source: patent US20250197375A1, “PYRIMIDINES AND METHODS OF THEIR USE” (Kineta, Inc., priority 2021, published 2025)
pIC50: −log10 of the molar value.

Legend:
[1] = tested on: PIKFYVE TDP-43 yeast strain; assay: Propidium iodide viability assay in PIKFYVE TDP-43 yeast strain; assay type: cell-based; conditions: for pIC50: Saccharomyces cerevisiae, PIKFYVE TDP-43 yeast strain, reduction in PI-positive cells, 15 to 0.11 μM, 24 hours; for PIKfyve TDP-43 (active/inactive): PIKFYVE TDP-43 yeast model
Source text: Generation of TDP-43 yeast model expressing human PIKfyve. Human PIKFYVE (“entry clone”) was cloned into pAG416GPDccdB (“destination vector”) according to standard Gateway cloning protocols (Invitrogen, Life Technologies). […] Lithium acetate/polyethylene glycol-based transformation was used to introduce the above PIKFYVE plasmid into a BY4741 yeast strain auxotrophic for the ura3 gene and deleted for two transcription factors that regulate the xenobiotic efflux pumps, a major efflux pump, and FAB1, the yeast ortholog of PIKFYVE (MATa, snq2::KILeu2; pdr3::Klura3; pdr1::NATMX; fab1::G418^R, his3; leu2; ura3; met15; LYS2+) (FIG. 2). Transformed yeast were plated on solid agar plates with complete synthetic media lacking uracil (CSM-ura) and containing 2% glucose. Individual colonies harboring the control or PIKFYVE TDP-43 plasmids were recovered. A plasmid containing wild-type TDP-43 under the transcriptional control of the GAL1 promoter and containing the hygromycin-resistance gene as a selectable marker was transformed into the fab1::G418^R pAG416GPD-PIKFYVE yeast strain (FIG. 1). Transformed yeast were plated on CSM-ura containing 2% glucose and 200 µg/mL G418 after overnight recovery in media lacking antibiotic. Multiple independent isolates were further evaluated for cytotoxicity and TDP-43 expression levels.
Viability Assay. A control yeast strain with the wild-type yeast FAB1 gene and TDP-43 (“FAB1 TDP-43”, carries empty pAG416 plasmid), and the “PIKFYVE TDP-43” yeast strain, were assessed for toxicity using a propidium iodide viability assay. Both yeast strains were transferred from solid CSM-ura/2% glucose agar plates into 3 mL of liquid CSM-ura/2% glucose media for 6-8 hours at 30° C. with aeration. […] Log-phase overnight cultures were diluted to OD600 of 0.005 in CSM-ura containing either 2% raffinose or galactose and 150 µL dispensed into each well of a flat bottom 96-well plates. […] Wells containing DMSO alone were also evaluated as controls for compound effects. […] Cultures were immediately mixed to ensure compound distribution and covered plates incubated at 30° C. for 24 hours in a stationary, humified incubator.
(§1) Upon the completion of incubation, cultures were assayed for viability using propidium iodide (PI) to stain for dead/dying cells. A working solution of PI was made where, for each plate, 1 µL of 10 mM PI was added to 10 mL of CSM-ura (raffinose or galactose). The final PI solution (50 µL/well) was dispensed into each well of a new round bottom 96-well plate. The overnight 96-well assay plate was then mixed with a multichannel pipet and 50 µL transferred to the PI-containing plate. This plate was then incubated for 30 minutes at 30° C. in the dark. A benchtop flow cytometer (Miltenyi MACSquant) was then used to assess red fluorescence (B2 channel), forward scatter, and side scatter (with following settings: gentle mix, high flow rate, fast measurement, 10,000 events). Intensity histograms were then gated for “P-positive” or “PI-negative” using the raffinose and galactose cultures treated with DMSO as controls. The DMSO controls for raffinose or galactose-containing cultures were used to determine the window of increased cell death and this difference set to 100. All compounds were similarity gated and then compared to this maximal window to establish the percent reduction in PI-positive cells.

FAB1 TDP-43 yeast strain = assay: Propidium iodide viability assay in FAB1 TDP-43 control yeast strain; assay type: cell-based; conditions: for FAB1 TDP-43 (active/inactive): FAB1 TDP-43 yeast model
Procedure: Viability Assay. A control yeast strain with the wild-type yeast FAB1 gene and TDP-43 (“FAB1 TDP-43”, carries empty pAG416 plasmid), and the “PIKFYVE TDP-43” yeast strain, were assessed for toxicity using a propidium iodide viability assay. Both yeast strains were transferred from solid CSM-ura/2% glucose agar plates into 3 mL of liquid CSM-ura/2% glucose media for 6-8 hours at 30° C. with aeration. Yeast cultures were then diluted to an optical density at 600 nm wavelength (OD600) of 0.005 in 3 mL of CSM-ura/2% raffinose and grown overnight at 30° C. with aeration to an OD600 of 0.3-0.8. Log-phase overnight cultures were diluted to OD600 of 0.005 in CSM-ura containing either 2% raffinose or galactose and 150 µL dispensed into each well of a flat bottom 96-well plates. Compounds formulated in 100% dimethyl sulfoxide (DMSO) were serially diluted in DMSO and 1.5 µL diluted compound transferred to the 96-well plates using a multichannel pipet. Wells containing DMSO alone were also evaluated as controls for compound effects. Tested concentrations ranged from 15 µM to 0.11 µM. Cultures were immediately mixed to ensure compound distribution and covered plates incubated at 30° C. for 24 hours in a stationary, humified incubator.
as §1

[2] = target: full-length human PIKFYVE (Homo sapiens (Human), UniProt Q9Y2I7, L932S/Q1183K/Q995L/S1033A/S696N/T998S); assay: PIKfyve Biochemical Assay (ADP-Glo Kinase assay, GST-PIKFYVE); conditions: ADP-Glo with full-length PIKfyve; read-out: PIKfyve IC50
Procedure: PIKfyve Biochemical Assay. The biochemical PIKFyve inhibition assays were run by Cama Biosciences according to proprietary methodology based on the Promega ADP-Glo™ Kinase assay. […] GST-PIKFYVE was purified by using glutathione sepharose chromatography and used in an ADP-Glo™ Kinase assay (Promega). Reactions were set up by adding the test compound solution, substrate solution, ATP solution and kinase solution, each at 4× final concentrations. Reactions were prepared with assay buffer (50 mM MOPS, 1 mM DTT, pH7.2), mixed, and incubated in black 384 well polystyrene plates for 1 hour at room temperature. ADP-Glo™ reagent was then added for 40 minutes, followed by kinase detection reagent for an additional 40 minutes. The kinase activity was evaluated by detecting relative light units on a luminescence plate reader. Samples were run in duplicate from 10 μM to 3 nM. […] IC50 values were calculated from concentration versus percent inhibition curves by fitting to a four-parameter logistic curve.
The biochemical PIKFyve inhibition assays were run by Cama Biosciences according to proprietary methodology based on the Promega ADP-Glo™ Kinase assay. […] GST-PIKFYVE was purified by using glutathione sepharose chromatography and used in an ADP-Glo™ Kinase assay (Promega).
Reactions were set up by adding the test compound solution, substrate solution, ATP solution and kinase solution, each at 4× final concentrations. Reactions were prepared with assay buffer (50 mM MOPS, 1 mM DTT, pH7.2), mixed, and incubated in black 384 well polystyrene plates for 1 hour at room temperature. ADP-Glo™ reagent was then added for 40 minutes, followed by kinase detection reagent for an additional 40 minutes. The kinase activity was evaluated by detecting relative light units on a luminescence plate reader. Samples were run in duplicate from 10 uM to 3 nM. […] IC50 values were calculated from concentration vs % inhibition curves by fitting to a four-parameter logistic curve.

full-length human PIKFYVE, sequence (Q9Y2I7 whole entry S696N/L932S/Q995L/T998S/S1033A/Q1183K): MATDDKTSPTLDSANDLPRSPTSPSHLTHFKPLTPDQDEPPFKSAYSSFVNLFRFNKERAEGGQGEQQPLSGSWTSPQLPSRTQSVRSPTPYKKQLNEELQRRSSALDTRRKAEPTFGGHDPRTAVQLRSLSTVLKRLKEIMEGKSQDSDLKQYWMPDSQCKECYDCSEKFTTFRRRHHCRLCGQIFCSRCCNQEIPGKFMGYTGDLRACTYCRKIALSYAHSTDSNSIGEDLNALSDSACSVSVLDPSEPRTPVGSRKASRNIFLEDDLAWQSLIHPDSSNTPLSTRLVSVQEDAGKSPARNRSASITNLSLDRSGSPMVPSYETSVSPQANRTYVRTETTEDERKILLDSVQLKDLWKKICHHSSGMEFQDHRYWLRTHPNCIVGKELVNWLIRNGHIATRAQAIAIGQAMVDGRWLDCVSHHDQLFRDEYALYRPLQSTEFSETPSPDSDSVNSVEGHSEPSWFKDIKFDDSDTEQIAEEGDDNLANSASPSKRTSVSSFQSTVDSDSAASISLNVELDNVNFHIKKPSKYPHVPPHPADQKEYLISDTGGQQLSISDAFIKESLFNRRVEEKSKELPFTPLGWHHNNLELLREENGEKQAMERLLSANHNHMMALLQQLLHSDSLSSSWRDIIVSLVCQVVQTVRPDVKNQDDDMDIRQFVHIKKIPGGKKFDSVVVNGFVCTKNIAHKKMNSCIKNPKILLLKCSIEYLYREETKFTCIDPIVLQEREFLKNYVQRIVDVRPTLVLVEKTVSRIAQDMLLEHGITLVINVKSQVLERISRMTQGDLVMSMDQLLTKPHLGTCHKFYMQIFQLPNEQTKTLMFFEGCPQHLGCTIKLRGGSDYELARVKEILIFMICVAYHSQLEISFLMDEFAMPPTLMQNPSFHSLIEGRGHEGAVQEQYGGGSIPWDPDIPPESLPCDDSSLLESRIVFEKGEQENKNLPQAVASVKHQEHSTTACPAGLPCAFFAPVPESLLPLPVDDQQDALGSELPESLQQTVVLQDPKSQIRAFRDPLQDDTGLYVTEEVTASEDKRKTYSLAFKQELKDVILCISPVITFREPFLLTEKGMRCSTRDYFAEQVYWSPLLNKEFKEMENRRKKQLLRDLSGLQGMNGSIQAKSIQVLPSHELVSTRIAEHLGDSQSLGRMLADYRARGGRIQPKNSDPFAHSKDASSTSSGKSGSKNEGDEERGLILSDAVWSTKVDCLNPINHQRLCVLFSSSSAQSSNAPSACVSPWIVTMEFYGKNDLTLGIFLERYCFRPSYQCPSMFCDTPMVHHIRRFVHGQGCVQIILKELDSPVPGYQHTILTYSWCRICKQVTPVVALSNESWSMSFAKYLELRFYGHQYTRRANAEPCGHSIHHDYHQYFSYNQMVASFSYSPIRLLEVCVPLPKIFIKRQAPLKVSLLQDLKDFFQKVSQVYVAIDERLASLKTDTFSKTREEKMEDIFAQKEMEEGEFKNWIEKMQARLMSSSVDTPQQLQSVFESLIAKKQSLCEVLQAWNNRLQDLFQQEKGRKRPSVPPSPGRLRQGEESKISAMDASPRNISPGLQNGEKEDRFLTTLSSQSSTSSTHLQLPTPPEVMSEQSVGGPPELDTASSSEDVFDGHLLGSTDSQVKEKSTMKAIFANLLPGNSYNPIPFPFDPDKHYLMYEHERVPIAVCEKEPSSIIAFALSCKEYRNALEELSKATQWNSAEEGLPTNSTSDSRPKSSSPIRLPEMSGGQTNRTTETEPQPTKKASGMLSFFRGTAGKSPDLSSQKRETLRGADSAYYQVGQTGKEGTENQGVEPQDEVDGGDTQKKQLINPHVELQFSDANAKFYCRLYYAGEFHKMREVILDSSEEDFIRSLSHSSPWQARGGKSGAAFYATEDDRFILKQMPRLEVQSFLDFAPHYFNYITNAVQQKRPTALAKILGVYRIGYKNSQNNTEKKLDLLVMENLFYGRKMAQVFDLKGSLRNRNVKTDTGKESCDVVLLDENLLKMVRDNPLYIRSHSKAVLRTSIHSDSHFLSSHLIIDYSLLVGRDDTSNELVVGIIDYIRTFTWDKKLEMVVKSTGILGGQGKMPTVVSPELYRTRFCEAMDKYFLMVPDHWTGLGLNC

SMILES	pIC50 [1]	FAB1 TDP-43 (active/inactive) (FAB1 TDP-43 yeast strain)	PIKfyve TDP-43 (active/inactive) [1]	other results
Fc1cccc(-c2ccnn2-c2nc(N3CCOCC3)c3ncccc3n2)c1	5.24			
c1ccc(-c2ccnc(-c3cc(N4CCOCC4)nc(OCc4ccncc4)n3)n2)cc1	5.84			
Cc1cccc(/C=N/Nc2cc(N3CC4CC3CO4)n3nc(-c4ccncc4)cc3n2)c1 (stereo not shown)		Inactive	Active	
c1ccc(-c2cccc(-c3cc(N4CCOCC4)n4nc(-c5ccncc5)cc4n3)n2)cc1	6.64			
Oc1cc(C2CCOCC2)nn1-c1cc(N2CCOCC2)n2nc(-c3ccncc3)cc2n1	5.04			
Cc1cccc(/C=N/Nc2cc(N3CCOCC3)n3nc(-c4ccncc4)cc3n2)c1 [drawing 190]		Inactive	Active	
Cc1cccc(/C=N/Nc2nc(N3CCOCC3)c3ncccc3n2)c1	5.09			
Cc1cccc(/C=N/Nc2cc(N3CCOCC3)n3nc(-c4ccncc4)cc3n2)c1 [APY0201]				viable cells (propidium iodide-negative population) (FAB1 TDP-43 yeast strain; FAB1 TDP-43, across a range of compound concentrations (only 0.23 μM is shown), FIG. 5): no increase in viable cells; population of propidium iodide-positive dead cells ([1]; PIKFYVE TDP-43 model, 0.23 μM, FIG. 6): reduced the population of propidium iodide-positive dead cells; viability ([1]; PIKFYVE TDP-43 model, concentrations ranging from 0.5 mM to less than 100 nM): increased viability
Cc1cccc(/C=N/Nc2nc(N3CCOCC3)c3nc(-c4ccncc4)n(C)c3n2)c1 [drawing 192]		Inactive	Active	
Cc1cccc(/C=N/Nc2cc(N3CCOCC3)nc(OCCc3ccc(CN)cc3)n2)c1	5.95			
Cc1cccc(/C=N/Nc2nc(N3CCOCC3)c3nc(-c4ccncc4)n(C)c3n2)c1 [drawing 206]	5.33			
N#Cc1cc(N2CCOCC2)n2nc(-c3ccncc3)cc2n1		Inactive	Inactive	pIC50 [2]: < 5.00
Oc1cc(-c2ccccc2)nn1-c1cc(N2CCOCC2)n2nc(-c3ccncc3)nc2n1	6.16			
CN(C)c1cc(N2CCOCC2)n2nc(-c3ccncc3)cc2n1		Inactive	Inactive	
c1ccc(N2CCc3c(OCc4cccnc4)nc(N4CCOCC4)nc32)cc1	5.57			
Cn1c(-c2ccncc2)nc2c(N3CCOCC3)ncnc21		Inactive	Inactive	
